Data from patent US5516784A, “Anti-HIV (AIDS) agents” (Schering Corporation, priority 1994, dated 1996).
Values after ≈ are worked out from the molar mass of the structure shown.

Assays:
[1] = system: HIV-1, isolate III B; assay: Test 2: inhibition of the growth of HIV-1 in tissue culture cells (CEM-SS, syncytia formation); type: cell-based; conditions: Human immunodeficiency virus 1, 168 h, 7 days, read-out: HIVMIC IC50
From the text: TEST 2-INHIBITION OF THE GROWTH OF HIV-1 IN TISSUE CULTURE CELLS
This test measured the capability of the compounds to inhibit the growth of HIV-1 in tissue culture cells. CEM-SS cells (human T-lymphocyte derived tissue culture cells) were infected with HIV-1, isolate III B which was produced in tissue culture. After 7 days, the virus has killed the cells as monitored by extensive syncytia formation (cell fusion). The test measured the capability of the chemical synthetic compounds to prevent syncytia formation and cell death. CEM cells were grown at 37° C. in an atmosphere of 5% CO2. HIV isolate III B was prepared by growth in and crude purification from CEM cells. The chemical synthetic compound was added to 96 well microtiter plates and diluted in varying steps across the wells of the plate. Cells and virus were added to each well and the concentration of the chemical synthetic compound required to inhibit syncytia formation by 50% (the IC50) after 7 days was determined. The viability of CEM cells which are not infected with HIV-1 isolate III B was simultaneously determined by the MTT assay, as described in Mossman, J. Immunolog. Methods 65:55-63, 1983, which is herein incorporated by reference.

[2] = target: HIV1 protease (Human immunodeficiency virus type 1 group M subtype B, UniProt P04585); assay: Test 1: inhibition of proteolytic activity of HIV-1 protease (HPLC); type: biochemical; design: proteolytic activity of HIV-1 protease; conditions: HPLC; HIV Substrate III; read-out: Enzyme Assays (HPLC) IC50
Method: TEST I-INHIBITION OF PROTEOLYTIC ACTIVITY OF HIV-1-PROTEASE
The ability of compounds of the invention to inhibit the proteolytic activity of HIV-1 protease was determined by using the method of Louis, et al., Biochem. Biophys. Res. Comm. 159:87-94, (1989), which is herein incorporated by reference. In using the method of Louis et al., HIV Substrate III, His-Lys-Ala-Arg-VaI-Leu-pNO2 Phe-Glu-Ala-Nle-Ser-NH2 purchased from Bachem Bioscience, Inc. Philadelphia, Pa. was used in place of the nonapeptide substrate […]amide.

SMILES	IC50 [1]	IC50 [2]
CC(C)(C)NC(=O)c1ccccc1OC[C@H](O)[C@H](Cc1ccccc1)NC(=O)[C@H](CC(N)=O)NC(=O)c1ccc2ccccc2n1 [Compound 4]	1.7 µg/mL (≈ 2.72 µM)	10 nM
CCC(C)[C@H](NC(=O)c1ccc2ccccc2n1)C(=O)N[C@@H](Cc1ccccc1)[C@@H](O)CSc1ccccc1C(=O)NC(C)(C)C (some centres unmarked) [Compound 35]	2.1 µg/mL (≈ 3.28 µM)	26 nM
CC(C)(C)NC(=O)c1ccccc1OC[C@H](O)[C@H](Cc1ccccc1)NC(=O)[C@H](CC(N)=O)NC(=O)c1cnc2ccccc2n1 [Compound 59]	1.41 µg/mL (≈ 2.25 µM)	5 nM
CCCCNC(=O)c1ccccc1SC[C@H](O)[C@H](Cc1ccccc1)NC(=O)[C@H](CC(N)=O)NC(=O)c1ccc2ccccc2n1 [Compound 8]	28.1 µg/mL (≈ 43.8 µM)	400 nM
CC(C)[C@H](NC(=O)c1ccc2ccccc2n1)C(=O)N[C@@H](Cc1ccccc1)[C@@H](O)CSc1ccccc1C(=O)NC(C)(C)C [Compound 49]	19.4 µg/mL (≈ 30.9 µM)	80 nM
CCC(C)[C@H](NC(=O)c1ccc2ccccc2n1)C(=O)N[C@@H](Cc1ccccc1)[C@@H](O)COc1ccccc1C(=O)NC(C)(C)C (some centres unmarked) [Compound 37]	6.08 µg/mL (≈ 9.73 µM)	60 nM

Second part, the molecule after the results:

IC50 [1]	IC50 [2]	SMILES
6.26 µg/mL (≈ 9.57 µM)	74 nM	NC(=O)C[C@H](NC(=O)c1ccc2ccccc2n1)C(=O)N[C@@H](Cc1ccccc1)[C@@H](O)CSC1CCCC1C(=O)Nc1ccccc1 (some centres unmarked) [Compound 20]
7.99 µg/mL (≈ 12.4 µM)	< 500 nM	CC(C)(C)NC(=O)c1ccccc1SC[C@H](O)[C@H](Cc1ccccc1)NC(=O)[C@H](CC(N)=O)NC(=O)c1ccc2ccccc2n1 [Compound 2]
5.07 µg/mL (≈ 8 µM)	300 nM	CC(C)(C)NC(=O)C1CCCC1SCC(O)[C@H](Cc1ccccc1)NC(=O)[C@H](CC(N)=O)NC(=O)c1ccc2ccccc2n1 (some centres unmarked) [Compound 13]
1.77 µg/mL (≈ 2.83 µM)	8 nM	CC(C)(C)NC(=O)c1ccccc1OC[C@@H](O)[C@H](Cc1ccccc1)NC(=O)[C@H](CC(N)=O)NC(=O)c1ccc2ccccc2n1 [Compound 5]
